In patent publication US10196403B2, “Compounds and compositions and uses thereof” (Sunovion Pharmaceuticals Inc., priority 2016, dated 2019):

System: mice
Assay: Neuropharmacological Assay (SmartCube)
Type: in vivo
Conditions: for minimal effective dose: Mus musculus, MED = dose having 50% or more total activity in SmartCube, read-out: POTENCY (minimal effective dose, MED); for AD: ADHD (SmartCube probability) / AG: analgesic (SmartCube probability) / AX: anxiolytic (SmartCube probability) / CE: cognitive enhancer (SmartCube probability) / DP: anti-depressant (SmartCube probability) / MS: mood stabilizer (SmartCube probability) / PS: anti-psychotic (SmartCube probability) / SD: sedative hypnotic (SmartCube probability) / UN: uncharacterized CNS activity (SmartCube probability): mice, i.p. 15 min before test, most efficacious dose(s) of 3 doses
Method in brief: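 Behavior of treated mice captured by digital video and matched algorithmically against reference drug classes, yielding a class probability at the most efficacious of 3 i.p. doses (15 min pretreatment, NMP/PEG/propylene glycol vehicle). Potency given as MED, the mpk dose reaching ≥50% total activity across usually 0.3–30 mpk.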

CNC[C@H]1OCCc2cc(Cl)ccc21 [Example 80, (S)-1-(6-chloroisochroman-1-yl)-N-methylmethanamine]
minimal effective dose: 10 to 30 mg/kg
AD: ADHD (SmartCube probability): + (LOQ≤ + <5%)
AG: analgesic (SmartCube probability): + (LOQ≤ + <5%)
AX: anxiolytic (SmartCube probability): ++ (5%≤ ++ <25%)
CE: cognitive enhancer (SmartCube probability): ++ (5%≤ ++ <25%)
DP: anti-depressant (SmartCube probability): ++ (5%≤ ++ <25%)
MS: mood stabilizer (SmartCube probability): + (LOQ≤ + <5%)
PS: anti-psychotic (SmartCube probability): +++ (25%≤ +++ <50%)
SD: sedative hypnotic (SmartCube probability): + (LOQ≤ + <5%)
UN: uncharacterized CNS activity (SmartCube probability): + (LOQ≤ + <5%)

NC[C@@H]1OCCc2c1ccc1c2OCO1 [Example 12, (R)-(8,9-dihydro-6H-[1,3]dioxolo[4,5-f]isochromen-6-yl)methanamine]
minimal effective dose: 3 to 10 mg/kg
AD: ADHD (SmartCube probability): + (LOQ≤ + <5%)
AG: analgesic (SmartCube probability): ++ (5%≤ ++ <25%)
AX: anxiolytic (SmartCube probability): + (LOQ≤ + <5%)
CE: cognitive enhancer (SmartCube probability): + (LOQ≤ + <5%)
DP: anti-depressant (SmartCube probability): ++++ (50%≤ ++++)
MS: mood stabilizer (SmartCube probability): + (LOQ≤ + <5%)
PS: anti-psychotic (SmartCube probability): ++ (5%≤ ++ <25%)
SD: sedative hypnotic (SmartCube probability): ++ (5%≤ ++ <25%)
UN: uncharacterized CNS activity (SmartCube probability): ++ (5%≤ ++ <25%)

CNC[C@@H]1OCCCc2cccc(F)c21 [Example 61, (R)-1-(9-fluoro-1,3,4,5-tetrahydrobenzo[c]oxepin-1-yl)-N-methylmethanamine]
minimal effective dose: 3 to 10 mg/kg
AD: ADHD (SmartCube probability): + (LOQ≤ + <5%)
AG: analgesic (SmartCube probability): + (LOQ≤ + <5%)
AX: anxiolytic (SmartCube probability): ++ (5%≤ ++ <25%)
CE: cognitive enhancer (SmartCube probability): + (LOQ≤ + <5%)
DP: anti-depressant (SmartCube probability): + (LOQ≤ + <5%)
MS: mood stabilizer (SmartCube probability): + (LOQ≤ + <5%)
PS: anti-psychotic (SmartCube probability): ++++ (50%≤ ++++)
SD: sedative hypnotic (SmartCube probability): + (LOQ≤ + <5%)
UN: uncharacterized CNS activity (SmartCube probability): +++ (25%≤ +++ <50%)

CNC[C@H]1OCCc2cc(F)ccc21 [Example 16, (S)-1-(6-fluoroisochroman-1-yl)-N-methylmethanamine]
minimal effective dose: 10 to 30 mg/kg
AD: ADHD (SmartCube probability): + (LOQ≤ + <5%)
AG: analgesic (SmartCube probability): ++ (5%≤ ++ <25%)
AX: anxiolytic (SmartCube probability): ++ (5%≤ ++ <25%)
CE: cognitive enhancer (SmartCube probability): + (LOQ≤ + <5%)
DP: anti-depressant (SmartCube probability): ++ (5%≤ ++ <25%)
MS: mood stabilizer (SmartCube probability): + (LOQ≤ + <5%)
PS: anti-psychotic (SmartCube probability): +++ (25%≤ +++ <50%)
SD: sedative hypnotic (SmartCube probability): ++ (5%≤ ++ <25%)
UN: uncharacterized CNS activity (SmartCube probability): + (LOQ≤ + <5%)

CNC[C@@H]1OCCc2ccc3c(c21)CCO3 [Example 107, (R)-N-methyl-1-(3,4,8,9-tetrahydro-1H-furo[2,3-h]isochromen-1-yl)methanamine]
minimal effective dose: 3 to 10 mg/kg
AD: ADHD (SmartCube probability): + (LOQ≤ + <5%)
AG: analgesic (SmartCube probability): + (LOQ≤ + <5%)
AX: anxiolytic (SmartCube probability): ++ (5%≤ ++ <25%)
CE: cognitive enhancer (SmartCube probability): + (LOQ≤ + <5%)
DP: anti-depressant (SmartCube probability): ++ (5%≤ ++ <25%)
MS: mood stabilizer (SmartCube probability): + (LOQ≤ + <5%)
PS: anti-psychotic (SmartCube probability): ++ (5%≤ ++ <25%)
SD: sedative hypnotic (SmartCube probability): ++ (5%≤ ++ <25%)
UN: uncharacterized CNS activity (SmartCube probability): +++ (25%≤ +++ <50%)

CNC[C@H]1OCCc2ccc3c(c21)OCCO3 [Example 9, (S)-N-methyl-1-(2,3,7,10-tetrahydro-8H-[1,4]dioxino[2,3-h]isochromen-10-yl)methanamine]
minimal effective dose: 3 to 10 mg/kg
AD: ADHD (SmartCube probability): + (LOQ≤ + <5%)
AG: analgesic (SmartCube probability): ++ (5%≤ ++ <25%)
AX: anxiolytic (SmartCube probability): ++ (5%≤ ++ <25%)
CE: cognitive enhancer (SmartCube probability): + (LOQ≤ + <5%)
DP: anti-depressant (SmartCube probability): +++ (25%≤ +++ <50%)
MS: mood stabilizer (SmartCube probability): ++ (5%≤ ++ <25%)
PS: anti-psychotic (SmartCube probability): ++ (5%≤ ++ <25%)
SD: sedative hypnotic (SmartCube probability): ++ (5%≤ ++ <25%)
UN: uncharacterized CNS activity (SmartCube probability): +++ (25%≤ +++ <50%)

CNC[C@@H]1OCCc2cccc(C)c21 [Example 41, (R)-N-methyl-1-(8-methylisochroman-1-yl)methanamine]
minimal effective dose: < 3 mg/kg
AD: ADHD (SmartCube probability): + (LOQ≤ + <5%)
AG: analgesic (SmartCube probability): ++ (5%≤ ++ <25%)
AX: anxiolytic (SmartCube probability): ++ (5%≤ ++ <25%)
CE: cognitive enhancer (SmartCube probability): + (LOQ≤ + <5%)
DP: anti-depressant (SmartCube probability): ++ (5%≤ ++ <25%)
MS: mood stabilizer (SmartCube probability): + (LOQ≤ + <5%)
PS: anti-psychotic (SmartCube probability): ++++ (50%≤ ++++)
SD: sedative hypnotic (SmartCube probability): ++ (5%≤ ++ <25%)
UN: uncharacterized CNS activity (SmartCube probability): ++++ (50%≤ ++++)

CNC[C@H]1OC[C@H](O)c2ccc3c(c21)OCO3 (single isomer, unassigned) [Example 112]
minimal effective dose: > 30 mg/kg
AD: ADHD (SmartCube probability): + (LOQ≤ + <5%)
AG: analgesic (SmartCube probability): + (LOQ≤ + <5%)
AX: anxiolytic (SmartCube probability): ++ (5%≤ ++ <25%)
CE: cognitive enhancer (SmartCube probability): + (LOQ≤ + <5%)
DP: anti-depressant (SmartCube probability): ++ (5%≤ ++ <25%)
MS: mood stabilizer (SmartCube probability): + (LOQ≤ + <5%)
PS: anti-psychotic (SmartCube probability): + (LOQ≤ + <5%)
SD: sedative hypnotic (SmartCube probability): + (LOQ≤ + <5%)
UN: uncharacterized CNS activity (SmartCube probability): + (LOQ≤ + <5%)

NC[C@@H]1OCCc2cccc(Cl)c21 [Example 71, (R)-(8-chloroisochroman-1-yl)methanamine]
minimal effective dose: < 3 mg/kg
AD: ADHD (SmartCube probability): + (LOQ≤ + <5%)
AG: analgesic (SmartCube probability): ++ (5%≤ ++ <25%)
AX: anxiolytic (SmartCube probability): ++ (5%≤ ++ <25%)
CE: cognitive enhancer (SmartCube probability): ++ (5%≤ ++ <25%)
DP: anti-depressant (SmartCube probability): + (LOQ≤ + <5%)
MS: mood stabilizer (SmartCube probability): + (LOQ≤ + <5%)
PS: anti-psychotic (SmartCube probability): ++ (5%≤ ++ <25%)
SD: sedative hypnotic (SmartCube probability): + (LOQ≤ + <5%)
UN: uncharacterized CNS activity (SmartCube probability): ++++ (50%≤ ++++)

CNC[C@@H]1OCCc2ccc(F)cc21 [Example 15, (R)-1-(7-fluoroisochroman-1-yl)-N-methylmethanamine]
minimal effective dose: < 3 mg/kg
AD: ADHD (SmartCube probability): + (LOQ≤ + <5%)
AG: analgesic (SmartCube probability): ++ (5%≤ ++ <25%)
AX: anxiolytic (SmartCube probability): ++ (5%≤ ++ <25%)
CE: cognitive enhancer (SmartCube probability): ++ (5%≤ ++ <25%)
DP: anti-depressant (SmartCube probability): ++ (5%≤ ++ <25%)
MS: mood stabilizer (SmartCube probability): ++ (5%≤ ++ <25%)
PS: anti-psychotic (SmartCube probability): +++ (25%≤ +++ <50%)
SD: sedative hypnotic (SmartCube probability): ++ (5%≤ ++ <25%)
UN: uncharacterized CNS activity (SmartCube probability): +++ (25%≤ +++ <50%)

CCNC[C@H]1OCCc2cccc(F)c21 [Example 86, (S)-N-((8-fluoroisochroman-1-yl)methyl)ethanamine]
minimal effective dose: 10 to 30 mg/kg
AD: ADHD (SmartCube probability): ++ (5%≤ ++ <25%)
AG: analgesic (SmartCube probability): + (LOQ≤ + <5%)
AX: anxiolytic (SmartCube probability): ++ (5%≤ ++ <25%)
CE: cognitive enhancer (SmartCube probability): ++ (5%≤ ++ <25%)
DP: anti-depressant (SmartCube probability): ++ (5%≤ ++ <25%)
MS: mood stabilizer (SmartCube probability): + (LOQ≤ + <5%)
PS: anti-psychotic (SmartCube probability): ++ (5%≤ ++ <25%)
SD: sedative hypnotic (SmartCube probability): +++ (25%≤ +++ <50%)
UN: uncharacterized CNS activity (SmartCube probability): + (LOQ≤ + <5%)

CNC[C@H]1OCCCc2cccc(F)c21 [Example 60, (S)-1-(9-fluoro-1,3,4,5-tetrahydrobenzo[c]oxepin-1-yl)-N-methylmethanamine]
minimal effective dose: 3 to 10 mg/kg
AD: ADHD (SmartCube probability): + (LOQ≤ + <5%)
AG: analgesic (SmartCube probability): + (LOQ≤ + <5%)
AX: anxiolytic (SmartCube probability): ++ (5%≤ ++ <25%)
CE: cognitive enhancer (SmartCube probability): + (LOQ≤ + <5%)
DP: anti-depressant (SmartCube probability): ++ (5%≤ ++ <25%)
MS: mood stabilizer (SmartCube probability): + (LOQ≤ + <5%)
PS: anti-psychotic (SmartCube probability): ++ (5%≤ ++ <25%)
SD: sedative hypnotic (SmartCube probability): ++++ (50%≤ ++++)
UN: uncharacterized CNS activity (SmartCube probability): +++ (25%≤ +++ <50%)

CNC[C@H]1OC[C@@H](O)c2ccc3c(c21)OCO3 (single isomer, unassigned) [Example 113]
minimal effective dose: > 30 mg/kg
AD: ADHD (SmartCube probability): + (LOQ≤ + <5%)
AG: analgesic (SmartCube probability): + (LOQ≤ + <5%)
AX: anxiolytic (SmartCube probability): ++ (5%≤ ++ <25%)
CE: cognitive enhancer (SmartCube probability): + (LOQ≤ + <5%)
DP: anti-depressant (SmartCube probability): + (LOQ≤ + <5%)
MS: mood stabilizer (SmartCube probability): + (LOQ≤ + <5%)
PS: anti-psychotic (SmartCube probability): + (LOQ≤ + <5%)
SD: sedative hypnotic (SmartCube probability): + (LOQ≤ + <5%)
UN: uncharacterized CNS activity (SmartCube probability): + (LOQ≤ + <5%)

Cc1cccc2c1[C@H](CN)OCC2 [Example 75, (R)-(8-methylisochroman-1-yl)methanamine]
minimal effective dose: 3 to 10 mg/kg
AD: ADHD (SmartCube probability): + (LOQ≤ + <5%)
AG: analgesic (SmartCube probability): ++ (5%≤ ++ <25%)
AX: anxiolytic (SmartCube probability): ++ (5%≤ ++ <25%)
CE: cognitive enhancer (SmartCube probability): ++ (5%≤ ++ <25%)
DP: anti-depressant (SmartCube probability): ++ (5%≤ ++ <25%)
MS: mood stabilizer (SmartCube probability): + (LOQ≤ + <5%)
PS: anti-psychotic (SmartCube probability): ++ (5%≤ ++ <25%)
SD: sedative hypnotic (SmartCube probability): + (LOQ≤ + <5%)
UN: uncharacterized CNS activity (SmartCube probability): ++++ (50%≤ ++++)

CNC[C@@H]1OCC(F)(F)c2ccccc21 [Example 28, (R)-1-(4,4-difluoroisochroman-1-yl)-N-methylmethanamine]
minimal effective dose: < 3 mg/kg
AD: ADHD (SmartCube probability): + (LOQ≤ + <5%)
AG: analgesic (SmartCube probability): ++ (5%≤ ++ <25%)
AX: anxiolytic (SmartCube probability): ++ (5%≤ ++ <25%)
CE: cognitive enhancer (SmartCube probability): ++ (5%≤ ++ <25%)
DP: anti-depressant (SmartCube probability): ++ (5%≤ ++ <25%)
MS: mood stabilizer (SmartCube probability): + (LOQ≤ + <5%)
PS: anti-psychotic (SmartCube probability): +++ (25%≤ +++ <50%)
SD: sedative hypnotic (SmartCube probability): ++ (5%≤ ++ <25%)
UN: uncharacterized CNS activity (SmartCube probability): +++ (25%≤ +++ <50%)
